Assay results as given in patent US20250115558A1, “PYRIDAZINE DERIVATIVES AND RELATED USES” (NodThera Limited, priority 2023, published 2025).

Assays:
THP-1 = THP-1 IC50 assay; type: cell-based; conditions: Homo sapiens; THP-1 cells
[1] = system: IL-1β release upon NLRP3 activation in peripheral blood mononuclear cells (PBMC); assay: PBMC IC50 Determination Assay; type: cell-based; conditions: Homo sapiens; inhibition of IL-1β release; LPS-primed PBMC stimulated with ATP or nigericin
How it was run: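 Human PBMC from buffy coats primed 3 h with LPS (1 μg/mL in protocol B), then compound for 30 min, then ATP (5 mM) or nigericin (10 μM; protocol A only) for 1 h. IL-1β released into medium measured by ELISA at 450 nm (protocol A) or HTRF at […] (protocol B).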

Row | SMILES | IC50 (THP-1) [nM] | IC50 [1] [nM]
1 | Cc1cc(C(F)(F)F)cc(O)c1-c1ccc(CN[C@H]2CCC(=O)N(C)C2)nn1 [Compound 88] | < 500 | < 500
2 | Cc1cc(Cl)cc(O)c1-c1ccc(CN2CCCC2=S)nn1 [Compound 89, 1-{[6-(4-Chloro-2-hydroxy-6-methylphenyl)pyridazin-3-yl]methyl}pyrrolidine-2-thione] | < 500 | < 500
3 | Cc1cc(Cl)cc(O)c1-c1ccc(CN[C@H]2CC(=O)N(C)C2)nn1 [Compound 90, (4S)-4-({[6-(4-Chloro-2-hydroxy-6-methylphenyl)pyridazin-3-yl]methyl}amino)-1-methylpyrrolidin-2-one] | 500 to 1000 | < 500
4 | Cc1cc(Cl)cc(O)c1-c1ccc(CN(C)[C@H]2CC(=O)N(C)C2)nn1 [Compound 91, (4S)-4-({[6-(4-Chloro-2-hydroxy-6-methylphenyl)pyridazin-3-yl]methyl}(methyl)amino)-1-methylpyrrolidin-2-one] | 1000 to 3000 | 1000 to 3000
5 | Cc1cc(C(F)(F)F)cc(O)c1-c1ccc(CNCc2cnccn2)nn1 [Compound 92, 3-Methyl-2-(6-(((pyrazin-2-ylmethyl)amino)methyl)pyridazin-3-yl)-5-(trifluoromethyl)phenol] | 3000 to 10000 | 1000 to 3000
6 | CNCc1ccc(-c2c(C)cc(C(F)(F)F)cc2O)nn1 [Compound 93] | 1000 to 3000 | 1000 to 3000
7 | Cc1cc(C(F)(F)F)cc(O)c1-c1ccc(CN(C)C)nn1 [Compound 94] | 1000 to 3000 | 1000 to 3000
8 | Cc1cc(C(F)(F)F)cc(O)c1-c1ccc(CNCC(F)(F)F)nn1 [Compound 95] | < 500 | < 500
9 | Cc1cc(C(F)(F)F)cc(O)c1-c1ccc(CNCC(F)F)nn1 [Compound 96] | 500 to 1000 | < 500
10 | Cc1cc(C(F)(F)F)cc(O)c1-c1ccc(CNCC2CC2)nn1 [Compound 97] | 1000 to 3000 | 500 to 1000
11 | CCNCc1ccc(-c2c(C)cc(C(F)(F)F)cc2O)nn1 [Compound 98] | 500 to 1000 | < 500
12 | Cc1cc(C(F)(F)F)cc(O)c1-c1ccc(CNC(C)C)nn1 [Compound 99] | 500 to 1000 | < 500
13 | Cc1cc(C(F)(F)F)cc(O)c1-c1ccc(CNC2CCCCC2)nn1 [Compound 100] | 1000 to 3000 | 1000 to 3000
14 | Cc1cc(C(F)(F)F)cc(O)c1-c1ccc(CNC2CCCC2)nn1 [Compound 101] | 500 to 1000 | < 500
15 | Cc1cc(C(F)(F)F)cc(O)c1-c1ccc(CNC2CCCOC2)nn1 (centres unmarked) [Compound 102] | 1000 to 3000 | 500 to 1000
16 | Cc1cc(C(F)(F)F)cc(O)c1-c1ccc(CNC2CCOC2)nn1 (centres unmarked) [Compound 103] | < 500 | < 500
17 | Cc1cc(C(F)(F)F)cc(O)c1-c1ccc(CNCC2COC2)nn1 [Compound 104] | 1000 to 3000 | 1000 to 3000
18 | Cc1cc(C(F)(F)F)cc(O)c1-c1ccc(CNCC2CCOC2)nn1 (centres unmarked) [Compound 105] | 3000 to 10000 | 1000 to 3000
19 | Cc1cc(C(F)(F)F)cc(O)c1-c1ccc(CNCC2CCCO2)nn1 (centres unmarked) [Compound 106] | 3000 to 10000 | 1000 to 3000
20 | Cc1cc(C(F)(F)F)cc(O)c1-c1ccc(CNCC2CCCCO2)nn1 (centres unmarked) [Compound 107] | 3000 to 10000 | 3000 to 10000
21 | Cc1cc(C(F)(F)F)cc(O)c1-c1ccc(CNCC2CCCOC2)nn1 (centres unmarked) [Compound 108] | 3000 to 10000 | 3000 to 10000
22 | Cc1cc(C(F)(F)F)cc(O)c1-c1ccc(CNCC2CCOCC2)nn1 [Compound 109] | 3000 to 10000 | 3000 to 10000

Row | SMILES | IC50 (THP-1) [nM] | IC50 [1] [nM]
23 | Cc1cc(C(F)(F)F)cc(O)c1-c1ccc(CNC2CCN(C)CC2)nn1 [Compound 110] | 1000 to 3000 | 1000 to 3000
24 | Cc1cc(C(F)(F)F)cc(O)c1-c1ccc(CNC2CCC(=O)N(C)C2)nn1 (centres unmarked) [Compound 111] | < 500 | < 500
25 | Cc1cc(C(F)(F)F)cc(O)c1-c1ccc(CNC2CCN(C)C(=O)C2)nn1 (centres unmarked) [Compound 112] | 1000 to 3000 | 500 to 1000
26 | Cc1cc(C(F)(F)F)cc(O)c1-c1ccc(CNC2CCN(C)C2=O)nn1 (centres unmarked) [Compound 113] | 1000 to 3000 | 500 to 1000
27 | Cc1cc(C(F)(F)F)cc(O)c1-c1ccc(CNC2CC(=O)N(C)C2=O)nn1 (centres unmarked) [Compound 114] | 500 to 1000 | < 500
28 | COCCNCc1ccc(-c2c(C)cc(C(F)(F)F)cc2O)nn1 [Compound 115] | 1000 to 3000 | 1000 to 3000
29 | Cc1cc(C(F)(F)F)cc(O)c1-c1ccc(CNCCN(C)C)nn1 [Compound 116] | 3000 to 10000 | 3000 to 10000
30 | Cc1cc(C(F)(F)F)cc(O)c1-c1ccc(CNCC(C)(C)O)nn1 [Compound 117] | 1000 to 3000 | 500 to 1000
31 | Cc1cc(C(F)(F)F)cc(O)c1-c1ccc(CNCCC(C)(C)O)nn1 [Compound 118] | 3000 to 10000 | 1000 to 3000
32 | Cc1cc(C(F)(F)F)cc(O)c1-c1ccc(Cn2ccccc2=N)nn1 [Compound 119] | 500 to 1000 | 500 to 1000
33 | Cc1cc(C(F)(F)F)cc(O)c1-c1ccc(Cn2ccc(=N)nc2)nn1 [Compound 120] | 3000 to 10000 | ≥ 10000
34 | Cc1cc(C(F)(F)F)cc(O)c1-c1ccc(Cn2ccc(=N)cn2)nn1 [Compound 121] | 3000 to 10000 | ≥ 10000
35 | Cc1cc(C(F)(F)F)cc(O)c1-c1ccc(CNc2ccn(C)n2)nn1 [Compound 122] | 500 to 1000 | < 500
36 | Cc1cc(C(F)(F)F)cc(O)c1-c1ccc(Cn2ccn(C)c2=N)nn1 [Compound 123] | 500 to 1000 | 1000 to 3000
37 | Cc1cc(C(F)(F)F)cc(O)c1-c1ccc(CNc2cnoc2)nn1 [Compound 124] | < 500 | < 500
38 | Cc1cn(Cc2ccc(-c3c(C)cc(C(F)(F)F)cc3O)nn2)c(=N)s1 [Compound 125] | 1000 to 3000 | 1000 to 3000
39 | Cc1cc(C(F)(F)F)cc(O)c1-c1ccc(CNCc2ccnn2C)nn1 [Compound 126] | 1000 to 3000 | 1000 to 3000
40 | Cc1cc(C(F)(F)F)cc(O)c1-c1ccc(CNCc2ccn(C)n2)nn1 [Compound 127] | 1000 to 3000 | 500 to 1000
41 | Cc1cc(C(F)(F)F)cc(O)c1-c1ccc(CNCc2cnn(C)c2)nn1 [Compound 128] | 1000 to 3000 | 1000 to 3000
42 | Cc1cc(C(F)(F)F)cc(O)c1-c1ccc(CN(C)C2CCOCC2)nn1 [Compound 129] | 1000 to 3000 | 1000 to 3000
43 | Cc1cc(C(F)(F)F)cc(O)c1-c1ccc(CN2CCOCC2)nn1 [Compound 130] | 500 to 1000 | 500 to 1000
44 | Cc1cc(C(F)(F)F)cc(O)c1-c1ccc(CN2CCN(C)CC2)nn1 [Compound 131] | 3000 to 10000 | 1000 to 3000

Row | SMILES | IC50 (THP-1) [nM] | IC50 [1] [nM]
45 | Cc1cc(C(F)(F)F)cc(O)c1-c1ccc(CN2CCN(C)C(=O)C2)nn1 [Compound 132] | 1000 to 3000 | 1000 to 3000
46 | Cc1cc(C(F)(F)F)cc(O)c1-c1ccc(CN2CCCC2)nn1 [Compound 133] | 500 to 1000 | < 500
47 | Cc1cc(C(F)(F)F)cc(O)c1-c1ccc(CN2CCCC2=O)nn1 [Compound 134] | < 500 | < 500
48 | Cc1cc(C(F)(F)F)cc(O)c1-c1ccc(CN2CCCCC2)nn1 [Compound 135] | < 500 | < 500
49 | Cc1cc(C(F)(F)F)cc(O)c1-c1ccc(CNC2CCSCC2)nn1 [Compound 136] | 500 to 1000 | 500 to 1000
50 | Cc1cc(C(F)(F)F)cc(O)c1-c1ccc(CNC2CCS(=O)(=O)CC2)nn1 [Compound 137] | 1000 to 3000 | 1000 to 3000
51 | Cc1cc(C(F)(F)F)cc(O)c1-c1ccc(CNCc2ccccc2)nn1 [Compound 138] | 1000 to 3000 | 500 to 1000
52 | Cc1cc(C(F)(F)F)cc(O)c1-c1ccc(CNC2CCOC(C)C2)nn1 (centres unmarked) [Compound 139] | 1000 to 3000 | 500 to 1000
53 | COC1CCC(NCc2ccc(-c3c(C)cc(C(F)(F)F)cc3O)nn2)CC1 (centres unmarked) [Compound 140] | 500 to 1000 | < 500
54 | Cc1cc(C(F)(F)F)cc(O)c1-c1ccc(CNCc2cccs2)nn1 [Compound 141] | 1000 to 3000 | < 500
55 | CC(=O)N1CCC(NCc2ccc(-c3c(C)cc(C(F)(F)F)cc3O)nn2)CC1 [Compound 142] | 500 to 1000 | < 500
56 | Cc1cc(C(F)(F)F)cc(O)c1-c1ccc(CNCCN2CCOCC2)nn1 [Compound 144] | 3000 to 10000 | 1000 to 3000
57 | Cc1cc(C(F)(F)F)cc(O)c1-c1ccc(C[n+]2cccc(N)c2)nn1 [Compound 145] | 1000 to 3000 | 3000 to 10000
58 | Cc1cc(C(F)(F)F)cc(O)c1-c1ccc(CNc2cnccn2)nn1 [Compound 146] | 500 to 1000 | 500 to 1000
59 | Cc1cc(NCc2ccc(-c3c(C)cc(C(F)(F)F)cc3O)nn2)on1 [Compound 149] | 1000 to 3000 | 1000 to 3000
60 | Cc1cc(C(F)(F)F)cc(O)c1-c1ccc(CNc2cnsc2)nn1 [Compound 150] | < 500 | < 500
61 | Cc1cc(C(F)(F)F)cc(O)c1-c1ccc(CN2CCCCC2=O)nn1 [Compound 151] | < 500 | < 500
62 | Cc1cc(C(F)(F)F)cc(O)c1-c1ccc(CN[C@H]2CC[C@](C)(O)CC2)nn1 [Compound 152] | 1000 to 3000 | 1000 to 3000
63 | Cc1cc(C(F)(F)F)cc(O)c1-c1ccc(CN[C@H]2CC[C@@](C)(O)CC2)nn1 [Compound 153] | 1000 to 3000 | 1000 to 3000
64 | Cc1cc(C(F)(F)F)cc(O)c1-c1ccc(CNC2CN3CCC2CC3)nn1 (centres unmarked) [Compound 154] | ≥ 10000 | ≥ 10000
